The supplement of paper PMC9938120

Assays:
Test in all cases: drug sensitivity score (DSS3, normalised partial AUC of % inhibition dose-response) (DSS (score)); higher = more sensitive (stronger inhibition of viability); extreme values may be limits of the assay
FMOC02_3 = patient-derived low-grade serous ovarian cancer cells; conditions: 72 h; library: FO5A; assay format: 2D, 384-well, CellTiter-Glo
Procedure, shortened: (§1)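 Patient-derived ovarian cancer cells (early passage, under 10) were dispensed onto 384-well flat clear-bottom plates pre-plated with compounds at five concentrations covering a 10,000-fold range. Plates were incubated 72 h at 37 °C, 5% CO2, and viability was read with CellTiter-Glo. Data were processed in Breeze. The drug sensitivity score (DSS3) is a partial area under the percent-inhibition dose-response curve, divided by the log of the upper asymptote; higher means more sensitive.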

FMOC09 = patient-derived high-grade serous ovarian cancer cells; conditions: 72 h; library: FO5A; assay format: 2D, 384-well, CellTiter-Glo
Procedure, shortened: as §1

FMOC24 = patient-derived high-grade serous ovarian cancer cells; conditions: 72 h; library: FO5A; assay format: 2D, 384-well, CellTiter-Glo
Procedure, shortened: as §1

FMOC22 = patient-derived mucinous ovarian cancer cells; conditions: 72 h; library: FO5A; assay format: 2D, 384-well, CellTiter-Glo
Procedure, shortened: as §1

FMOC25_2 = patient-derived low-grade serous ovarian cancer cells; conditions: 72 h; library: FO5A; assay format: 2D, 384-well, CellTiter-Glo
Procedure, shortened: as §1

FMOC14 = patient-derived high-grade serous ovarian cancer cells; conditions: 72 h; library: FO5A; assay format: 2D, 384-well, CellTiter-Glo
Procedure, shortened: as §1

FMOC02_2 = patient-derived low-grade serous ovarian cancer cells; conditions: 72 h; library: FO5A; assay format: 2D, 384-well, CellTiter-Glo
Procedure, shortened: as §1

FMOC06 = patient-derived mucinous ovarian cancer cells; conditions: 72 h; library: FO5A; assay format: 2D, 384-well, CellTiter-Glo
Procedure, shortened: as §1

FMOC25_1 = patient-derived low-grade serous ovarian cancer cells; conditions: 72 h; library: FO4B; assay format: 2D, 384-well, CellTiter-Glo
Procedure, shortened: as §1

FMOC03 = patient-derived mucinous ovarian cancer cells; conditions: 72 h; library: FO5A; assay format: 2D, 384-well, CellTiter-Glo
Procedure, shortened: as §1

SMILES | drug sensitivity score (FMOC02_3) | drug sensitivity score (FMOC09) | drug sensitivity score (FMOC24) | drug sensitivity score (FMOC22) | drug sensitivity score (FMOC25_2) | drug sensitivity score (FMOC14) | drug sensitivity score (FMOC02_2) | drug sensitivity score (FMOC06) | drug sensitivity score (FMOC25_1) | drug sensitivity score (FMOC03)
O=C(c1ccc(F)c(F)c1Nc1ccc(I)cc1F)N1CC(O)([C@@H]2CCCCN2)C1 [Cobimetinib] | 13.7 | 6.1 | 1.8 | 7.5 | 9.2 | 0.1 | 13.3 | 9 | 10 | 10.3
COc1c(OCCCN2CCOCC2)ccc2c1N=C(NC(=O)c1cnc(N)nc1)N1CCN=C21 [Copanlisib] | 19.6 | 10.5 | 3.1 | 5.2 | 16.8 | 6.6 | 17.4 | 12.8 | 11.7 | 8.5
CC1(COc2ccc3c(c2)ncn3-c2ccc3cccc(N4CCC(N)CC4)c3n2)COC1 [Crenolanib] | 4.6 | 3 | 9.25 | 5 | 4.8 | 4.4 | 6.1 | 4.4 | 4.3 | 4.4
Nc1ccn([C@@H]2O[C@H](CO)[C@@H](O)[C@@H]2O)c(=O)n1 [Cytarabine] | 9.3 | 6.9 | 0.6 | 6.4 | 6.3 | 0 | 8.3 | 2.4 | 3.4 | 2.3
COc1cc2ncnc(Nc3ccc(F)c(Cl)c3)c2cc1NC(=O)/C=C/CN1CCCCC1 [Dacomitinib] | 18 | 16.1 | 0.3 | 1.7 | 18.6 | 4.6 | 20.4 | 5.5 | 7.8 | 18.2
Cc1c2oc3c(C)ccc(C(=O)N[C@@H]4C(=O)N[C@H](C(C)C)C(=O)N5CCC[C@H]5C(=O)N(C)CC(=O)N(C)[C@@H](C(C)C)C(=O)O[C@@H]4C)c3nc-2c(C(=O)N[C@@H]2C(=O)N[C@H](C(C)C)C(=O)N3CCC[C@H]3C(=O)N(C)CC(=O)N(C)[C@@H](C(C)C)C(=O)O[C@@H]2C)c(N)c1=O [Dactinomycin] | 27.2 | 16.7 | 23.2 | 21.5 | 28.8 | 21.7 | 22.1 | 22.9 | 23.3 | 21.7
Cn1c(=O)n(-c2ccc(C(C)(C)C#N)cc2)c2c3cc(-c4cnc5ccccc5c4)ccc3ncc21 [Dactolisib] | 23 | 14.4 | 11.1 | 13 | 23.2 | 13.1 | 22.1 | 15.6 | 22.7 | 16.2
CO[C@@H](C(=O)N1Cc2[nH]nc(NC(=O)c3ccc(N4CCN(C)CC4)cc3)c2C1)c1ccccc1 [Danusertib] | 10.1 | 8.7 | 4.3 | 0 | 8 | 1.4 | 5.7 | 4.7 | 3.1 | 4.7
Cc1nc(Nc2ncc(C(=O)Nc3c(C)cccc3Cl)s2)cc(N2CCN(CCO)CC2)n1 [Dasatinib] | 20.4 | 17.1 | 4.5 | 0 | 7.7 | 5.1 | 19.9 | 5 | 2.8 | 8.4
COc1cccc2c1C(=O)c1c(O)c3c(c(O)c1C2=O)C[C@@](O)(C(C)=O)C[C@@H]3O[C@H]1C[C@H](N)[C@H](O)[C@H](C)O1 [Daunorubicin] | 9.7 | 6.4 | 7.6 | 4.9 | 7.7 | 5.8 | 6.7 | 6.4 | 10.1 | 4.6
CCc1cnn2c(NCc3ccc[n+]([O-])c3)cc(N3CCCC[C@H]3CCO)nc12 [Dinaciclib] | 25 | 10.3 | 18.8 | 13.1 | 28.3 | 18.5 | 22.1 | 20.2 | 17.6 | 16.4
CC(=O)O[C@@]12CO[C@@H]1C[C@H](O)[C@@]1(C)C(=O)[C@H](O)C3=C(C)[C@@H](OC(=O)[C@H](O)[C@@H](NC(=O)OC(C)(C)C)c4ccccc4)C[C@@](O)([C@@H](OC(=O)c4ccccc4)[C@H]21)C3(C)C [Docetaxel] | 15.5 | 13.9 | 0.6 | 12.4 | 15.5 | 0 | 10.8 | 9.1 | 12.1 | 11.7
COc1cccc2c1C(=O)c1c(O)c3c(c(O)c1C2=O)C[C@@](O)(C(=O)CO)C[C@@H]3O[C@H]1C[C@H](N)[C@H](O)[C@H](C)O1 [Doxorubicin] | 7.2 | 6.5 | 5.65 | 4.5 | 8 | 3.6 | 2.9 | 4.3 | 7.7 | 2.6
Cc1cc(Nc2cc(N3CCN(C)CC3)nc(/C=C/c3ccccc3)n2)n[nH]1 [ENMD-2076] | 13.7 | 8.6 | 4.95 | 4.1 | 10.5 | 5.2 | 11.5 | 6.7 | 6.1 | 6.2
Nc1ccccc1NC(=O)c1ccc(CNC(=O)OCc2cccnc2)cc1 [Entinostat] | 7.5 | 1.6 | 8.4 | 5 | 3.7 | 8.6 | 8.6 | 7.6 | 4.3 | 8.2
C#Cc1cccc(Nc2ncnc3cc(OCCOC)c(OCCOC)cc23)c1 [Erlotinib] | 15.1 | 11 | 3.6 | 1.8 | 14.1 | 3.7 | 15.7 | 3 | 11.7 | 14.7
